In patent US9120749B2, “Quinoline derivatives and MELK inhibitors containing the same” (ONCOTHERAPY SCIENCE, INC., priority 2010, dated 2015):
Like-named read-outs stand apart in the source and are kept apart here.

Legend:
A549 cells = assay: Cell-based assay: anti-proliferative activity, Cell Counting Kit-8, 72 hours (A549); details: 72 hours
Outline: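 A549 cells were seeded in 96-well plates and exposed to candidate inhibitors for 72 hours. Cell growth was then measured with Cell Counting Kit-8, and IC50 values were calculated from the resulting growth data.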

T47D cells = assay: Cell-based assay: anti-proliferative activity, Cell Counting Kit-8, 72 hours (T47D); details: Homo sapiens, T47D, 72 h
Outline: (§1)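 Target-specific cytotoxicity: seeded cells treated with MELK inhibitor candidates for 72 h, proliferation quantified via CCK-8, IC50 fitted.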

MELK = MELK (Homo sapiens, UniProt Q14680); assay: Kinase assay: MELK activity, phosphorylation of FITC-labeled histone H3 peptide measured by IMAP fluorescence polarization; type: biochemical; details: read-out: IC50 (μM) (kinase assay)
Outline: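 Polarization of fluorescence served as the signal for MELK turnover of FITC-conjugated histone H3 peptide. Binding solution quenched each reaction, and plates stood 0.5 hour at room temperature before reading.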

DU4475 cells = assay: Cell-based assay: anti-proliferative activity, Cell Counting Kit-8, 72 hours (DU4475)
HT-1197 cells = assay: Cell-based assay: anti-proliferative activity, Cell Counting Kit-8, 72 hours (HT-1197, negative control without MELK expression); details: HT1197 cells (negative control, no MELK expression), 72 hours
Outline: as §1

Chain of MELK (Q14680 whole entry, looked up): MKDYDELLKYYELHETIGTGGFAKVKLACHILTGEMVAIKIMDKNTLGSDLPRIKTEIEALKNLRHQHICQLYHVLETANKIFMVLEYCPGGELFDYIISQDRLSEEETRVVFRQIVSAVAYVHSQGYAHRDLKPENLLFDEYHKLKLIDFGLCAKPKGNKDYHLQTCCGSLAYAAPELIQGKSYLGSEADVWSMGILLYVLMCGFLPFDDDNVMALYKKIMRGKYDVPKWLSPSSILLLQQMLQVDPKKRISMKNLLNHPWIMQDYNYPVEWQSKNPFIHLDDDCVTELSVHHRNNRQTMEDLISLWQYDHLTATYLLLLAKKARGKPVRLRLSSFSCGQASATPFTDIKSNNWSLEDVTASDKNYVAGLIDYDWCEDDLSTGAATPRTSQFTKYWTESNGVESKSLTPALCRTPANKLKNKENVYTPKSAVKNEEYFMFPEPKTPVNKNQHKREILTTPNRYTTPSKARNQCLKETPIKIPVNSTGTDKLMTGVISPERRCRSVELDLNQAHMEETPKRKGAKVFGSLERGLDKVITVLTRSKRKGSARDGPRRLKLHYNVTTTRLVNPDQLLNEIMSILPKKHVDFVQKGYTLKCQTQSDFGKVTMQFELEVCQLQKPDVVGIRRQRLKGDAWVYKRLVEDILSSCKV

Row | Compound | IC50 (A549 cells; Homo sapiens, A549, 72 h) [µM] | IC50 (T47D cells) [µM] | IC50 (MELK) [µM] | IC50 (DU4475 cells; Homo sapiens, DU-4475, 72 h) [µM] | IC50 (HT-1197 cells; Homo sapiens, HT1197, 72 h) [µM] | IC50 (HT-1197 cells) [µM] | IC50 (A549 cells) [µM] | IC50 (DU4475 cells) [µM]
1 | CNC[C@H]1CC[C@H](Nc2c(C(=O)C3CC3)cnc3ccc(-c4cc(Cl)c(O)c(Cl)c4)cc23)CC1 [Example 685, cyclopropyl(6-(3,5-dichloro-4-hydroxyphenyl)-4-((trans-4-((methylamino)methyl)cyclohexyl)amino)quinolin-3-yl)methanone] | 0.14 | 0.054 | 0.0016 | 0.018 | 0.73 | – | – | –
2 | CC(=O)c1cnc2ccc(-c3cc(F)c(O)c(F)c3)cc2c1N[C@H]1CC[C@H](CN(C)C)CC1 [Example 721] | 0.32 | 0.15 | 0.035 | 0.22 | 3.4 | – | – | –
3 | CC(=O)c1cnc2ccc(-c3cc(F)c(O)c(Cl)c3)cc2c1N[C@@H]1CC[C@@H](CN(C)C)C1 [Example 717, 1-(6-(3-chloro-5-fluoro-4-hydroxyphenyl)-4-((1R,3R)-3-((dimethylamino)methyl)cyclopentylamino)quinolin-3-yl)ethanone] | 0.65 | 0.42 | 0.011 | 0.34 | 2 | – | – | –
4 | CCC(=O)c1cnc2ccc(-c3cc(F)c(O)c(Cl)c3)cc2c1Nc1ccc(N2CCN(C)CC2)nc1 [Example 736, 1-(6-(3-chloro-5-fluoro-4-hydroxyphenyl)-4-(6-(4-methylpiperazin-1-yl)pyridin-3-ylamino)quinolin-3-yl)propan-1-one] | 0.22 | 0.14 | 0.036 | 0.19 | 10 | – | – | –
5 | CC(=O)c1cnc2ccc(-c3cc(Cl)c(O)c(Cl)c3)cc2c1N[C@@H]1CC[C@@H](CN(C)C)C1 [Example 718, 1-(6-(3,5-dichloro-4-hydroxyphenyl)-4-((1R,3R)-3-((dimethylamino)methyl)cyclopentylamino)quinolin-3-yl)ethanone] | 0.44 | 0.36 | 0.0055 | 0.19 | 2 | – | – | –
6 | CN(C)CCOc1ccc(Nc2c(C(=O)C3CC3)cnc3ccc(-c4cc(Cl)c(O)c(Cl)c4)cc23)cn1 [Example 711, Cyclopropyl(6-(3,5-dichloro-4-hydroxyphenyl)-4-(6-(2-(dimethylamino)ethoxy)pyridin-3-ylamino)quinolin-3-yl)methanone] | 0.11 | 0.22 | 0.0032 | 0.073 | 5.7 | – | – | –
7 | CC(=O)c1cnc2ccc(-c3cc(F)c(O)c(Cl)c3)cc2c1N[C@H]1CC[C@H](CN2CCCC2)CC1 [Example 731] | 0.17 | 0.11 | 0.0047 | 0.13 | 1.3 | – | – | –
8 | CN(C)C[C@]1(O)CC[C@@H](Nc2c(C(=O)C3CC3)cnc3ccc(-c4cc(F)c(O)c(Cl)c4)cc23)CC1 [Example 673, (6-(3-chloro-5-fluoro-4-hydroxyphenyl)-4-((cis-4-((dimethylamino)methyl)-4-hydroxycyclohexyl)amino)quinolin-3-yl)(cyclopropyl)methanone] | 0.16 | 0.16 | 0.0042 | 0.089 | 1.4 | – | – | –
9 | N[C@H]1CCCN(c2ccc(Nc3c(C(=O)C4CC4)cnc4ccc(-c5cc(F)c(O)c(Cl)c5)cc34)cn2)C1 [Example 648, (S)-(4-(6-(3-aminopiperidin-1-yl)pyridin-3-ylamino)-6-(3-chloro-5-fluoro-4-hydroxyphenyl)quinolin-3-yl)(cyclopropyl)methanone] | 0.013 | 0.0095 | 0.0019 | 0.0046 | 0.28 | – | – | –
10 | COc1cc(-c2ccc3ncc(C(=O)C4CC4)c(Nc4ccc(NCCO)nc4)c3c2)cc(Cl)c1O [Example 677, (6-(3-chloro-4-hydroxy-5-methoxyphenyl)-4-(6-(2-hydroxyethylamino)pyridin-3-ylamino)quinolin-3-yl)(cyclopropyl)methanone] | 0.36 | 0.33 | 0.014 | 0.38 | 1.5 | – | – | –
11 | CN(C)C1CCN(c2ccc(Nc3c(C(=O)C4CC4)cnc4ccc(-c5cc(Cl)c(O)c(Cl)c5)cc34)cn2)C1 (centres unmarked) [Example 690, cyclopropyl(6-(3,5-dichloro-4-hydroxyphenyl)-4-(6-(3-(dimethylamino)pyrrolidin-1-yl)pyridin-3-ylamino)quinolin-3-yl)methanone] | 0.3 | 0.25 | 0.0047 | 0.19 | 4 | – | – | –
12 | CC(=O)c1cnc2ccc(-c3cc(Cl)c(O)c(Cl)c3)cc2c1Nc1cccc(CCN(C)C)c1 [Example 729, 1-{6-(3,5-Dichloro-4-hydroxyphenyl)-4-[3-(2-(dimethylamino)ethyl)phenylamino]quinolin-3-yl}ethanone] | 0.2 | 0.52 | 0.0022 | 0.1 | 10 | – | – | –
13 | CC(=O)c1cnc2ccc(-c3cc(F)c(O)c(Cl)c3)cc2c1Nc1ccc(N2CCCC(N)C2)nc1 (centres unmarked) [Example 732, 1-(4-(6-(3-aminopiperidin-1-yl)pyridin-3-ylamino)-6-(3-chloro-5-fluoro-4-hydroxyphenyl)quinolin-3-yl)ethanone] | 0.0094 | 0.0056 | 0.0017 | 0.0099 | – | 0.18 | – | –
14 | O=C(c1cnc2ccc(-c3cc(F)c(O)c(Cl)c3)cc2c1N[C@H]1CC[C@H](CN2CCC(O)C2)CC1)C1CC1 (stereo partly drawn) [Example 631, (6-(3-chloro-5-fluoro-4-hydroxyphenyl)-4-((trans-4-((3-hydroxypyrrolidin-1-yl)methyl)cyclohexyl)amino)quinolin-3-yl)(cyclopropyl)methanone] | 0.17 | 0.074 | 0.0021 | 0.055 | 0.85 | – | – | –
15 | CC1(N)CCC(Nc2c(C(=O)C3CC3)cnc3ccc(-c4cc(Cl)c(O)c(Cl)c4)cc23)CC1 (centres unmarked) [Example 638, [4-(4-Amino-4-methylcyclohexylamino)-6-(3,5-dichloro-4-hydroxyphenyl)quinolin-3-yl](cyclopropyl)methanone] | 0.12 | 0.1 | 0.0034 | 0.022 | 0.67 | – | – | –
16 | O=C(c1cnc2ccc(-c3cc(Cl)c(O)c(Cl)c3)cc2c1Nc1ccc(NCCO)nc1)C1CC1 [Example 678, cyclopropyl(6-(3,5-dichloro-4-hydroxyphenyl)-4-(6-(2-hydroxyethylamino)pyridin-3-ylamino)quinolin-3-yl)methanone] | 1.2 | 0.41 | 0.011 | 0.11 | 5.1 | – | – | –
17 | CN1CCCC(n2cc(Nc3c(C(=O)C4CC4)cnc4ccc(-c5cc(F)c(O)c(Cl)c5)cc34)cn2)C1 (centres unmarked) [Example 699, {6-(3-Chloro-5-fluoro-4-hydroxyphenyl)-4-[1-(1-methylpiperidin-3-yl)-1H-pyrazol-4-ylamino]quinolin-3-yl}(cyclopropyl)methanone] | 0.18 | 0.24 | 0.0026 | 0.072 | 2.7 | – | – | –
18 | COc1cc(-c2ccc3ncc(C(=O)C4CC4)c(Nc4ccc(CN5CCN(C)CC5)nc4)c3c2)cc(Cl)c1O [Example 683, (6-(3-chloro-4-hydroxy-5-methoxyphenyl)-4-(6-((4-methylpiperazin-1-yl)methyl)pyridin-3-ylamino)quinolin-3-yl)(cyclopropyl)methanone] | 1.2 | 0.69 | 0.016 | 1.3 | 9.8 | – | – | –
19 | N[C@H]1CCCN(c2ccc(Nc3c(C(=O)C4CC4)cnc4ccc(-c5cc(Cl)c(O)c(Cl)c5)cc34)cn2)C1 [Example 646, (S)-(4-(6-(3-aminopiperidin-1-yl)pyridin-3-ylamino)-6-(3,5-dichloro-4-hydroxyphenyl)quinolin-3-yl)(cyclopropyl)methanone] | – | 0.02 | 0.0011 | – | 0.56 | – | 0.022 | 0.0035
20 | COc1cc(-c2ccc3ncc(C(=O)C4CC4)c(Nc4cnc(N5CCCC(N)C5)nc4)c3c2)cc(Cl)c1O (centres unmarked) [Example 644, (4-(2-(3-aminopiperidin-1-yl)pyrimidin-5-ylamino)-6-(3-chloro-4-hydroxy-5-methoxyphenyl)quinolin-3-yl)(cyclopropyl)methanone] | 0.23 | 0.047 | 0.0028 | 0.068 | 2.4 | – | – | –
21 | CC(=O)c1cnc2ccc(-c3cc(F)c(O)c(Cl)c3)cc2c1Nc1ccc(CCN(C)C)cc1 [Example 745, 1-(6-(3-chloro-5-fluoro-4-hydroxyphenyl)-4-(4-(2-(dimethylamino)ethyl)phenylamino)quinolin-3-yl)ethanone] | 0.16 | 0.12 | 0.0083 | 0.063 | 0.99 | – | – | –
22 | COc1cc(-c2ccc3ncc(C(=O)C4CC4)c(NC4CCC(C)(N)CC4)c3c2)cc(Cl)c1O (centres unmarked) [Example 639, [4-(4-Amino-4-methylcyclohexylamino)-6-(3-chloro-4-hydroxy-5-methoxyphenyl)quinolin-3-yl](cyclopropyl)methanone] | 0.09 | 0.1 | 0.0012 | 0.062 | 0.46 | – | – | –
